Results taken from PubChem BioAssay (NCI).
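All cell lines were grown in 96-well plates and treated with compound for 48 hours. TGI marks complete inhibition of growth.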

Assays:
Experiment in all cases: growth of human tumour cells (NCI), 48 h
HOP-18 NSCLC = system: HOP-18 NSCLC
SNB-78 CNS = system: SNB-78 CNS
XF 498 CNS = system: XF 498 CNS
LXFL 529 NSCLC = system: LXFL 529 NSCLC
M19-MEL melanoma = system: M19-MEL melanoma
DMS 273 small cell lung = system: DMS 273 small cell lung

Measured: TGI

CC1(C)OP23(NC(=O)OC2(C(F)(F)F)c2ccccc2O3)OC1(C)C (stereo unspecified)
> 100 µM: HOP-18 NSCLC | SNB-78 CNS | XF 498 CNS | LXFL 529 NSCLC | M19-MEL melanoma | DMS 273 small cell lung
